Results from ChEMBL document CHEMBL1641460, “Potent and selective thiophene urea-templated inhibitors of S6K” (Bioorg Med Chem Lett, 2011).

How the values were obtained:
[1] = biological target: MAP kinase-activated protein kinase 2 (Homo sapiens) (UniProt P49137); experiment: Inhibition of MAPKAPK2 at 1 uM
CYP1A2 = biological target: T1, CYP1A2 (Homo sapiens, UniProt P05177); experiment: Inhibition of CYP1A2 at 3 uM by LC/MS/MS analysis; assay type: ADME
T1 sequence (P05177 whole entry): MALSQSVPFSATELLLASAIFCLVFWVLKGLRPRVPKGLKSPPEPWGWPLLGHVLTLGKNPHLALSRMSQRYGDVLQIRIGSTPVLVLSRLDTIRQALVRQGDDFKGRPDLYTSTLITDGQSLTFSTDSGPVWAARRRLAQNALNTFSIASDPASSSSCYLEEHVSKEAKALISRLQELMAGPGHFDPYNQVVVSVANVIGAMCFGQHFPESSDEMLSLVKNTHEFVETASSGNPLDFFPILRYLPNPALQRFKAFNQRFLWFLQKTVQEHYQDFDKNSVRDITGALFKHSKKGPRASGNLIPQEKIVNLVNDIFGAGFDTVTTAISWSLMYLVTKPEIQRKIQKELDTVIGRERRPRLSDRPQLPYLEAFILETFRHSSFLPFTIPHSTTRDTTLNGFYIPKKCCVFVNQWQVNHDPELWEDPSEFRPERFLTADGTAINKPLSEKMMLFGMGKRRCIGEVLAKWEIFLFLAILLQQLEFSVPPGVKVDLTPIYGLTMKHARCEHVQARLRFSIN

[2] = biological target: cAMP-dependent protein kinase catalytic subunit alpha (Homo sapiens) (UniProt P17612); experiment: Inhibition of PRKACA at 10 uM
[3] = biological target: Tyrosine-protein kinase BTK (Homo sapiens) (UniProt Q06187); experiment: Inhibition of BTK at 1 uM
[4] = biological target: Protein kinase C zeta type (Homo sapiens) (UniProt Q05513); experiment: Inhibition of PRKCZ at 10 uM
[5] = biological target: MAP kinase-activated protein kinase 2 (Homo sapiens) (UniProt P49137); experiment: Inhibition of MAPKAPK2 at 10 uM
[6] = biological target: Tyrosine-protein kinase Lck (Homo sapiens) (UniProt P06239); experiment: Inhibition of LCK at 10 uM
[7] = biological target: Insulin receptor (Homo sapiens) (UniProt P06213); experiment: Inhibition of INSR at 10 uM
[8] = biological target: Tyrosine-protein kinase ABL1 (Homo sapiens) (UniProt P00519); experiment: Inhibition of ABL1 at 10 uM
[9] = biological target: Hepatocyte growth factor receptor (Homo sapiens) (UniProt P08581); experiment: Inhibition of MET at 1 uM
[10] = biological target: Mitogen-activated protein kinase 1 (Homo sapiens) (UniProt P28482); experiment: Inhibition of MAPK1 at 10 uM
[11] = biological target: Aurora kinase A (Homo sapiens) (UniProt O14965); experiment: Inhibition of aurora A at 1 uM
[12] = biological target: cAMP-dependent protein kinase catalytic subunit alpha (Homo sapiens) (UniProt P17612); experiment: Inhibition of PRKACA at 1 uM
[13] = biological target: Casein kinase II subunit alpha (Homo sapiens) (UniProt P68400); experiment: Inhibition of CSNK2A1 at 10 uM
[14] = biological target: Tyrosine-protein kinase ABL1 (Homo sapiens) (UniProt P00519); experiment: Inhibition of ABL1 at 1 uM
[15] = biological target: Mitogen-activated protein kinase kinase kinase 9 (Homo sapiens) (UniProt P80192); experiment: Inhibition of MAP3K9 at 1 uM
CYP2D6 = CYP2D6 (Homo sapiens, UniProt P10635); experiment: Inhibition of CYP2D6 at 3 uM by LC/MS/MS analysis; assay type: ADME
[16] = biological target: Casein kinase II subunit alpha (Homo sapiens) (UniProt P68400); experiment: Inhibition of CSNK2A1 at 1 uM
[17] = biological target: Myosin light chain kinase 2, skeletal/cardiac muscle (Homo sapiens) (UniProt Q9H1R3); experiment: Inhibition of MYLK2 at 10 uM
[18] = biological target: Voltage-gated inwardly rectifying potassium channel KCNH2 (Homo sapiens, UniProt Q12809); experiment: Displacement of labeled dofetilide from human ERG
[19] = biological target: Serine/threonine-protein kinase TAO3 (Homo sapiens) (UniProt Q9H2K8); experiment: Inhibition of TAOK3 at 10 uM
[20] = biological target: Serine/threonine-protein kinase PAK 4 (Homo sapiens) (UniProt O96013); experiment: Inhibition of PAK4 at 10 uM
[21] = biological target: Serine/threonine-protein kinase Chk2 (Homo sapiens) (UniProt O96017); experiment: Inhibition of CHEK2 at 1 uM
[22] = biological target: High affinity nerve growth factor receptor (Homo sapiens) (UniProt P04629); experiment: Inhibition of NTRK1 at 10 uM
[23] = biological target: Cyclin-dependent kinase 2 (Homo sapiens) (UniProt P24941); experiment: Inhibition of CDK2 at 10 uM
[24] = biological target: Ribosomal protein S6 kinase beta-1 (Homo sapiens, UniProt P23443); experiment: Inhibition of S6K1
[25] = biological target: Serine/threonine-protein kinase 3 (Homo sapiens) (UniProt Q13188); experiment: Inhibition of STK3 at 10 uM
[26] = biological target: Calcium/calmodulin-dependent protein kinase type 1 (Homo sapiens) (UniProt Q14012); experiment: Inhibition of CAMK1 at 10 uM
[27] = biological target: Rho-associated protein kinase 1 (Homo sapiens) (UniProt Q13464); experiment: Inhibition of ROCK1 at 10 uM
[28] = biological target: High affinity nerve growth factor receptor (Homo sapiens) (UniProt P04629); experiment: Inhibition of NTRK1 at 1 uM
[29] = biological target: Inhibitor of nuclear factor kappa-B kinase subunit beta (Homo sapiens) (UniProt O14920); experiment: Inhibition of IKBKB at 10 uM
[30] = biological target: Mitogen-activated protein kinase 14 (Homo sapiens) (UniProt Q16539); experiment: Inhibition of MAPK14 at 10 uM
[31] = biological target: Serine/threonine-protein kinase 3 (Homo sapiens) (UniProt Q13188); experiment: Inhibition of STK3 at 1 uM
[32] = biological target: Fibroblast growth factor receptor 1 (Homo sapiens) (UniProt P11362); experiment: Inhibition of FGFR1 at 10 uM
[33] = biological target: Serine/threonine-protein kinase Nek2 (Homo sapiens) (UniProt P51955); experiment: Inhibition of NEK2 at 10 uM
[34] = biological target: Vascular endothelial growth factor receptor 2 (Homo sapiens) (UniProt P35968); experiment: Inhibition of KDR at 10 uM
[35] = biological target: Ephrin type-A receptor 2 (Homo sapiens) (UniProt P29317); experiment: Inhibition of EPHA2 at 10 uM
[36] = biological target: Serine/threonine-protein kinase Chk1 (Homo sapiens) (UniProt O14757); experiment: Inhibition of CHEK1 at 10 uM
[37] = biological target: RAC-alpha serine/threonine-protein kinase (Homo sapiens) (UniProt P31749); experiment: Inhibition of AKT1 at 10 uM
[38] = biological target: Proto-oncogene tyrosine-protein kinase Src (Homo sapiens) (UniProt P12931); experiment: Inhibition of SRC at 1 uM
[39] = biological target: RAC-alpha serine/threonine-protein kinase (Homo sapiens) (UniProt P31749); experiment: Inhibition of AKT1 at 1 uM
[40] = biological target: Serine/threonine-protein kinase PAK 4 (Homo sapiens) (UniProt O96013); experiment: Inhibition of PAK4 at 1 uM
[41] = biological target: Serine/threonine-protein kinase pim-2 (Homo sapiens) (UniProt Q9P1W9); experiment: Inhibition of PIM2 at 1 uM
[42] = biological target: Insulin receptor (Homo sapiens) (UniProt P06213); experiment: Inhibition of INSR at 1 uM

Sequence of Serine/threonine-protein kinase PAK 4 (Homo sapiens) (O96013 whole entry, looked up): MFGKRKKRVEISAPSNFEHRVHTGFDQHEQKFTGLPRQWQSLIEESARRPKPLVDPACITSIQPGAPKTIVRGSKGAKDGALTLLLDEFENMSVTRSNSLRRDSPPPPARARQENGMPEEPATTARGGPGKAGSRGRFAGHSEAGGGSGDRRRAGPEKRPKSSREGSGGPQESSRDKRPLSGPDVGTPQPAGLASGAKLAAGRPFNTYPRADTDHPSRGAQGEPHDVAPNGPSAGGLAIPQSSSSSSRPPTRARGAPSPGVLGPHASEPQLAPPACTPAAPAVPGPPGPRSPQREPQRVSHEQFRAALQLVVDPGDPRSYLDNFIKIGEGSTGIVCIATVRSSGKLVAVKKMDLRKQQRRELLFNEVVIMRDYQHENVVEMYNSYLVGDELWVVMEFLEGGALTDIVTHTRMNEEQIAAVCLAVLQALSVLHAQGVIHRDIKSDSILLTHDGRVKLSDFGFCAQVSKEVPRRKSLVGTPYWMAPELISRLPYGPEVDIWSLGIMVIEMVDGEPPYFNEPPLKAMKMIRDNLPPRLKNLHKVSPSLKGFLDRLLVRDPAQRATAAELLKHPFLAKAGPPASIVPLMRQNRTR
Sequence of Serine/threonine-protein kinase 3 (Homo sapiens) (Q13188 whole entry): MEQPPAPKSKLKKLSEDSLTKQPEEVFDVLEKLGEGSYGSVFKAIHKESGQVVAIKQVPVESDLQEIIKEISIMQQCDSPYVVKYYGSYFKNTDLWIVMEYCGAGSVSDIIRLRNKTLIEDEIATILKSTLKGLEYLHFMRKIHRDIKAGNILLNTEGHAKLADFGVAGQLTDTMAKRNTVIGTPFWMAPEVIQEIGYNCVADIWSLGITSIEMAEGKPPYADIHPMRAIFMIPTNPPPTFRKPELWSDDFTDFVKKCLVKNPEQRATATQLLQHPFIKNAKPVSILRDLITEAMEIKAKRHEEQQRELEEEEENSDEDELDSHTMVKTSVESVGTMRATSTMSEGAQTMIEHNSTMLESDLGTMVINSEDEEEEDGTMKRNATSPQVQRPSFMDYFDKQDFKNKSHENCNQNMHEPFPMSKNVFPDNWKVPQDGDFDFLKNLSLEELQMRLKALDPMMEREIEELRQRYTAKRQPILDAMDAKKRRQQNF
Sequence of RAC-alpha serine/threonine-protein kinase (Homo sapiens) (P31749 whole entry): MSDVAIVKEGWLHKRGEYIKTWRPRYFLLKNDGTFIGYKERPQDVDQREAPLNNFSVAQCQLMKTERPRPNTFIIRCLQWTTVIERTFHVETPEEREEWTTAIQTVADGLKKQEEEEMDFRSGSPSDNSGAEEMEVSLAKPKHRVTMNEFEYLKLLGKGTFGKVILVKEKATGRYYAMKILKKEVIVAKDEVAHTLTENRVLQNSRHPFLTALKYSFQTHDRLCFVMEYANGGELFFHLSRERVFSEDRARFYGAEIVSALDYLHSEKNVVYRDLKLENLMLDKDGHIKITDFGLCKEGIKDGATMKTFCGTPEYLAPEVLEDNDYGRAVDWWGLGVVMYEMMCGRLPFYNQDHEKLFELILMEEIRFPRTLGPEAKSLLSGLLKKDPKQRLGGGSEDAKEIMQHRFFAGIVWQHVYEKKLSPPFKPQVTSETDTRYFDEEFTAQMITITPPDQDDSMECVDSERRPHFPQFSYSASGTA
Sequence of High affinity nerve growth factor receptor (Homo sapiens) (P04629 33-796 limits assumed): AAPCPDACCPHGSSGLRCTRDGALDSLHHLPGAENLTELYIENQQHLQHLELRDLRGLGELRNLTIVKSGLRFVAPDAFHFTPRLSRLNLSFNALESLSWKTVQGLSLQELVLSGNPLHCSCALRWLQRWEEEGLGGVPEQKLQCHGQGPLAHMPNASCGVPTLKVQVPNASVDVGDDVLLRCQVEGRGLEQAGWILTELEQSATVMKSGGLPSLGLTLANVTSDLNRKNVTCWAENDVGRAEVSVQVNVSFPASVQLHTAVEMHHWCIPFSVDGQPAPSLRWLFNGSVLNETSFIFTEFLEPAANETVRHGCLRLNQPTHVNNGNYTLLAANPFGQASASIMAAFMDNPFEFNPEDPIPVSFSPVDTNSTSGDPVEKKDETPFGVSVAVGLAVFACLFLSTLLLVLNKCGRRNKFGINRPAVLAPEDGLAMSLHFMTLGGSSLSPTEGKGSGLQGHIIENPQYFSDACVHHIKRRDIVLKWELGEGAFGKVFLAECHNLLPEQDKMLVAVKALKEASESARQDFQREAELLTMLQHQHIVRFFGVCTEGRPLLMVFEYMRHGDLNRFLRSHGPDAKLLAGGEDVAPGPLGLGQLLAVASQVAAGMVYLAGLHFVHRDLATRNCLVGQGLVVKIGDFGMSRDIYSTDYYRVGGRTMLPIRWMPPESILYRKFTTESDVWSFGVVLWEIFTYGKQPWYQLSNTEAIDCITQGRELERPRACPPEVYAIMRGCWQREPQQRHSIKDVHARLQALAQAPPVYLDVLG
Sequence of Insulin receptor (Homo sapiens) (P06213 28-758 limits assumed): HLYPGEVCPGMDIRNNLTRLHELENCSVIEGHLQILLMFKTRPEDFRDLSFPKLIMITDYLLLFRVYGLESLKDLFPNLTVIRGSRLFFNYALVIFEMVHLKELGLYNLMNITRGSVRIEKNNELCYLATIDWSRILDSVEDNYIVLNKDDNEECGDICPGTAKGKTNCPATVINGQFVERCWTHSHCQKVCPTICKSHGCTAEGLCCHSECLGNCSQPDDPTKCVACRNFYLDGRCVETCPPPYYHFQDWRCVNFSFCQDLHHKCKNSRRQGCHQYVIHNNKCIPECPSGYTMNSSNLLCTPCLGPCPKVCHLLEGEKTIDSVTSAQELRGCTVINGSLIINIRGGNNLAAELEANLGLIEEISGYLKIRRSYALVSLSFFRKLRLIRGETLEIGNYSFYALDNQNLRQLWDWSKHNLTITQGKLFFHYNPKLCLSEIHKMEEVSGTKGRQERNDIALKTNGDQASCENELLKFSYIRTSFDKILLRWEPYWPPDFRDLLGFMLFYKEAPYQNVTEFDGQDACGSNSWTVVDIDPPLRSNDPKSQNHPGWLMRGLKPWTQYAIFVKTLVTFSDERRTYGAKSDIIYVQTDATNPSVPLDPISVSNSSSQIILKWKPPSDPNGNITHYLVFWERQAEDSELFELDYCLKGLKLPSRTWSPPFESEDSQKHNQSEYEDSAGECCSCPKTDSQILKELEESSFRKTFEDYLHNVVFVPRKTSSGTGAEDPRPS
Sequence of Insulin receptor (Homo sapiens) (P06213 763-1382 limits assumed): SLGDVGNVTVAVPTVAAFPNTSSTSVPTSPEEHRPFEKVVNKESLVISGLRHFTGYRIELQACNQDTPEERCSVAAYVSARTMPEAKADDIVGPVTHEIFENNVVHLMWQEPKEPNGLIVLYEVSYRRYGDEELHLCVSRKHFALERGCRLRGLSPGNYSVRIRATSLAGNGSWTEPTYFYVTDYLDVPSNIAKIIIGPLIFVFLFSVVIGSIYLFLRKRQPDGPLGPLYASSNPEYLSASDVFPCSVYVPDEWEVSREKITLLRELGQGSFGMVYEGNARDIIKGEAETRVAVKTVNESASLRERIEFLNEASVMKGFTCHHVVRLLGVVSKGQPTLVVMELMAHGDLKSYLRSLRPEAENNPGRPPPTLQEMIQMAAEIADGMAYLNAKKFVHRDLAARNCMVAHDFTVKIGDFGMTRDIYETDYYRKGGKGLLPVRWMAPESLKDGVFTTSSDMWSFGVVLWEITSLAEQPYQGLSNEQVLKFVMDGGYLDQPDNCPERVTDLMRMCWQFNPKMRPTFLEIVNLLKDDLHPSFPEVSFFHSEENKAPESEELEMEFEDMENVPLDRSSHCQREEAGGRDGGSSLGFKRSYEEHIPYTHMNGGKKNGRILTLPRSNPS
Sequence of Casein kinase II subunit alpha (Homo sapiens) (P68400 whole entry, looked up): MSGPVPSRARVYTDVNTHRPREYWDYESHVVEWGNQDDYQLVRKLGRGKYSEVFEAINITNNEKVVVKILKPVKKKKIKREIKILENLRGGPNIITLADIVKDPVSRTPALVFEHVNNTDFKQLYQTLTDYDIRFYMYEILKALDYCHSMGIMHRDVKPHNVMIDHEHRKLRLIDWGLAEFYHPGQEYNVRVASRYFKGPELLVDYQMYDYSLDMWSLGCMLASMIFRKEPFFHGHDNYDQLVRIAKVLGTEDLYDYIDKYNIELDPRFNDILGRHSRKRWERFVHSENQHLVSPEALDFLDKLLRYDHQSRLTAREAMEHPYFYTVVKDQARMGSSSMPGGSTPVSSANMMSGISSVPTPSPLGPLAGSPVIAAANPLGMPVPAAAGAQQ
Sequence of MAP kinase-activated protein kinase 2 (Homo sapiens) (P49137 whole entry, looked up): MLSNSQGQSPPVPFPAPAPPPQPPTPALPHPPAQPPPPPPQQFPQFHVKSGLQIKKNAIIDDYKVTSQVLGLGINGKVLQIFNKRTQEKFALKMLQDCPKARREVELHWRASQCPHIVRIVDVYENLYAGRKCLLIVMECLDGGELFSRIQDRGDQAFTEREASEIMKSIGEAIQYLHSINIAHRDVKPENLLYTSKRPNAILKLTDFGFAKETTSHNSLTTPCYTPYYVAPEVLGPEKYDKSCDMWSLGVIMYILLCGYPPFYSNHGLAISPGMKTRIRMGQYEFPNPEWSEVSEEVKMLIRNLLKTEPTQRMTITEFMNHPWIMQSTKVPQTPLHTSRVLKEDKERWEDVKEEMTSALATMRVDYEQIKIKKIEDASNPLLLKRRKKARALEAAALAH
Sequence of Serine/threonine-protein kinase Chk2 (Homo sapiens) (O96017 whole entry): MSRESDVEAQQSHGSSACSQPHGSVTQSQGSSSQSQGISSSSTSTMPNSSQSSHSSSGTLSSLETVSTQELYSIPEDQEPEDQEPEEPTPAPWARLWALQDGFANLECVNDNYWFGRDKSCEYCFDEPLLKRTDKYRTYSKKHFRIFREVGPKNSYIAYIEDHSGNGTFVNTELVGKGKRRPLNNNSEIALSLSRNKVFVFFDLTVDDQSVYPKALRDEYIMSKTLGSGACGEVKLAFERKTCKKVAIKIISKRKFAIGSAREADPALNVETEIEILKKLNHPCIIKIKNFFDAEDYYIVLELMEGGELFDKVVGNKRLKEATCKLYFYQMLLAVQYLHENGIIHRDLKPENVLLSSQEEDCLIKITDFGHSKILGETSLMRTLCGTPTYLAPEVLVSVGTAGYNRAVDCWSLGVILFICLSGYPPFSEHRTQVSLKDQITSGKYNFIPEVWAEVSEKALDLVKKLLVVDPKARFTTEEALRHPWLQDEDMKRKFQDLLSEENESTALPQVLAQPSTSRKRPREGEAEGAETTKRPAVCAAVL

inhibition [1]: 10%
inhibition at 3 µM (CYP1A2): 6%
inhibition [2]: 10%
inhibition [3]: 0%
inhibition [4]: 20%
inhibition [5]: 10%
inhibition [6]: 0%
inhibition [7]: 0%
inhibition [8]: 0%
inhibition [9]: 0%
inhibition [10]: 10%
inhibition [11]: 0%
inhibition [12]: 10%
inhibition [13]: 30%
inhibition [14]: 0%
inhibition [15]: 20%
inhibition at 3 µM (CYP2D6): 0%
inhibition [16]: 30%
inhibition [17]: 10%
inhibition [19]: 10%
inhibition [20]: 0%
inhibition [21]: 20%
inhibition [22]: 10%
inhibition [23]: 10%
IC50 [24]: 52 nM
inhibition [25]: 0%
inhibition [26]: 10%
inhibition [27]: 10%
inhibition [28]: 10%
inhibition [29]: 10%
inhibition [30]: 10%
inhibition [31]: 0%
inhibition [32]: 0%
inhibition [33]: 10%
inhibition [34]: 0%
inhibition [35]: 10%
inhibition [36]: 10%
inhibition [37]: 0%
inhibition [38]: 0%
inhibition [39]: 0%
inhibition [40]: 0%
inhibition [41]: 0%
inhibition [42]: 0%
Structure (SMILES): CC(C)(C)c1cc(C(=O)O)c(NC(=O)Nc2ccc3[nH]ncc3c2)s1
inhibition (INH) [18]: 0%
